According to ChEMBL document CHEMBL1158879, “Preparation of 7-Alkoxylated Furanopyrones: Semisynthesis of ()-Etharvensin, a New Styryl-Lactone from Goniothalamus arvensis” (J Nat Prod, 1997):
Activity calls are given as the source filed them. The calls are words filed in the database; no cut-off is given here.

Legend:
[1] = system: Aorta; assay: Inhibition of noradrenaline-induced contractile response in rat aorta in absence of calcium; assay type: functional, tissue-based
[2] = system: Aorta; assay: Inhibition of noradrenaline-induced contractile response in rat aorta at 100 uM in presence of calcium; assay type: functional, tissue-based

Structure (SMILES) | IC50 [1] [µM] | Activity [2]
O=C1C=C[C@@H]2O[C@H](c3ccccc3)[C@@H](O)[C@@H]2O1 [ALTHOLACTONE] | 78 | inactive
O=C1CC[C@@H]2O[C@H](c3ccccc3)[C@@H](O)[C@@H]2O1 [GONIOTHARVENSIN] | 80 | inactive
CCO[C@@H]1CC(=O)O[C@H]2[C@H](O)[C@@H](c3ccccc3)O[C@H]21 |  | inactive
